Like-named read-outs stand apart in the source and are kept apart here.
What was measured:
[1] = test system: Escherichia coli ATCC 25922; test: Checkerboard MBC test; assay type: cell-based; conditions: for MBC99.9 / MBC99.9/MIC: used separately
Source text: (§1) A standard 96-well plate checkerboard test platform for the determination of Minimum Inhibitory Concentration (MIC) and Minimum Bactericidal Concentration (MBC) as endpoints is used for the test of the antibacterial activity of the pharmaceutical combination in vitro. Escherichia coli ATCC 25922 strain is used as the representative strain of Gram-negative bacteria in initial investigations. The correlation between the observed results and the major Gram-negative bacteria in hospital—Pseudomonas aeruginosa, Klebsiella pneumoniae, Acinetobacter baumannii and Stenotrophomonas maltophilia—is assessed by a similar method.
Minimum inhibitory concentration (MIC) endpoints of the combination of TNP-2092 and polymyxin B or E were determined by the two-agent checkerboard assay method based on the CLSI broth microdilution susceptibility method. To obtain a 96-well plate for each pharmaceutical combination, two separate intermediate dilution plates were prepared as described. A sufficient volume of a standard cell inoculum of ˜5×10^5 CFU/mL was prepared in cation adjusted Mueller Hinton broth with 0.002% (vol:vol) polysorbate-80 using the direct colony suspension method. 0.2 mL of the above suspension was added to the wells in the first column of a first 96-well plate (ID-1), and 0.1 mL of the suspension was added to all remaining wells. 0.2 mL of the same cell inoculum suspension was added to the wells in the first row of a second plate (ID-2), and 0.1 mL of suspension was added to all the remaining wells. An appropriately concentrated drug stock “compound-1” (representing one of the two drugs to be tested in the combination) was added to each well in the first column of the plate ID-1. This was then diluted serially two-fold across the plate, changing tips at each transfer, until column 11 was reached. From column 11, 0.1 mL was removed and discarded and column 12 contains only cell inoculum and no drug. Next, an appropriately concentrated drug stock “Compound 2” (representing the second of the two agents to be tested in the combination) was then diluted into each well of row 1 in plate ID2. This was then diluted serially two-fold down the plate, changing tips at each transfer, until row 7 was reached. 0.1 mL was removed from row 7 and discarded and row 8 contains only cell inoculum and no drug. Finally, 0.05 mL was transferred from both ID1 and ID2 into a third 96 well “destination MIC test plate” (see FIG. 1). […] Column 12 is used to call the MIC of compound 2 alone and row 8 is used to call the MIC of compound 1 when tested alone. Note that the intersection of row 8 and column 12 contains no drug and serves as the growth control. The “destination MIC test plates” were then incubated statically at 35° C. for 18-24 h and the MIC of each agent alone or in combination was read visually.
For minimum bactericidal concentration (MBC) endpoints, 0.008 mL portions of each well, after MICs were called, were transferred from the MIC test plates by an automatic sampler to a charcoal agar omni recipient plate. Drops were allowed to air dry in a biological cabinet and the plates incubated inverted for 18-24 h a 35° C. The MBC was scored as the lowest consecutive antimicrobial drug concentration required to kill ≥99.9% of viable input test organisms in 18-24 h, or ≤5 CFU remaining per 0.008 mL drop
(§2) In vitro fractional inhibitory concentration (FIC) was calculated using the following formula: […]
FIC (Fractional inhibitory concentration) or FBC (fractional bactericidal concentration) results were interpreted as synergistic, additive, indifferent, or antagonistic. In cases where no endpoint was observed and the MIC/MBC could not be called, then for the purpose of algebraic calculations, the endpoint was arbitrarily assumed to be one dilution greater than the tested range

[2] = test system: Escherichia coli ATCC 25922; test: Checkerboard broth microdilution MIC test; assay type: cell-based
Source text: as §1
Escherichia coli ATCC 25922 is a quality control strain for MIC testing as recommended by the Clinical and Laboratory Standards Institute (CLSI), which was obtained originally from the American Type Culture Collection (ATCC) repository and was used as a model of Gram-negative pathogen described herein. Other Gram-negative bacteria strains, including two strains of Pseudomonas aeruginosa, two strains of Klebsiella pneumoniae, Acinetobacter baumannii and Stenotrophomonas maltophilia, were also obtained from ATCC.
Minimum inhibitory concentration (MIC) endpoints of the combination of TNP-2092 and polymyxin B or E were determined by the two-agent checkerboard assay method based on the CLSI broth microdilution susceptibility method. To obtain a 96-well plate for each pharmaceutical combination, two separate intermediate dilution plates were prepared as described. A sufficient volume of a standard cell inoculum of ˜5×10^5 CFU/mL was prepared in cation adjusted Mueller Hinton broth with 0.002% (vol:vol) polysorbate-80 using the direct colony suspension method. […] The “destination MIC test plates” were then incubated statically at 35° C. for 18-24 h and the MIC of each agent alone or in combination was read visually.
as §2

Molecule | MBC99.9 [1] | MBC99.9/MIC [1] | MIC ([2]; used separately) | MBC ([1]; ATCC25922, used separately, read-out: MBC99.9) | MIC ([2]; ATCC25922, used separately, read-out: MIC)
polymyxin B | 8 µg/mL | 4 | 2 µg/mL | – | –
polymyxin E | 8 µg/mL | 8 | 1 µg/mL | – | –
CO[C@H]1/C=C/O[C@@]2(C)Oc3c(C)c(O)c4c(O)c(c(/C=N/N5CCC(N(C)C6([C@@H]7CCN(c8c(F)cn9c(=O)c(C(=O)O)cc(C%10CC%10)c9c8C)C7)CC6)CC5)c(O)c4c3C2=O)NC(=O)/C(C)=C\C=C\[C@H](C)[C@H](O)[C@@H](C)[C@@H](O)[C@@H](C)[C@H](OC(C)=O)[C@@H]1C [TNP-2092] | – | 1 | – | 0.25 µg/mL | 0.25 µg/mL
